The pIC50 is −log10 of the IC50, conventionally taken in molar units.

One assay has as its target α4β1 integrin (Homo sapiens (Human), UniProt P05556+P13612). In words: Integrin Adhesion Assay: Protocol 5 (VCAM-coated plate, RPMI-8866 cells with stable LOF mutation of the ITGB7 gene). Type of assay: cell-based. Put shortly: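 RPMI-8866 B cells with CRISPR/Cas9 ITGB7 knockout (clonal, verified by flow cytometry) adhered to VCAM-coated wells for 1 h at 37° C in HEPES/NaCl buffer with 1 mM MnCl2, 0.1 mM CaCl2, 1% BSA, 1% DMSO. Bound cells quantified by CellTiter-Glo luminescence after washing; % inhibition versus DMSO and control, 4-parameter fit.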

Another assay has as its target α4β7 integrin (Homo sapiens (Human), UniProt P13612+P26010). In words: Integrin Adhesion Assay: Protocol 4 (MAdCAM-coated plate, RPMI-8866 cells with stable LOF mutation of the ITGB1 gene). Type of assay: cell-based. In outline: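 RPMI-8866 cells with CRISPR/Cas9 knockout of ITGB1 (2×10^6/mL) were added to MAdCAM-coated wells with compound (1% DMSO) in HEPES/NaCl buffer with 1 mM MnCl2, 0.1 mM CaCl2 and 1% BSA, then incubated 1 h at 37 °C. After four washes, adherent cells were quantified by CellTiter-Glo luminescence. Percent inhibition versus DMSO and control compound was fitted to 4-parameter curves.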

Where [1] appears, read: Protocol 5, RPMI-8866 cells with LOF mutation of ITGB7, VCAM, read-out: Mean IC50 α4β1 KO.
The mark [2] stands for this setting: Protocol 4, RPMI-8866 cells with LOF mutation of ITGB1, MAdCAM, read-out: Mean IC50 α4β7 KO.
[3] abbreviates: RPMI-8866 cells with stable LOF mutation of the ITGB7 gene, read-out: Mean IC50 α4β1 KO^b.
Where [4] appears, read: RPMI-8866 cells with stable LOF mutation of the ITGB1 gene, read-out: Mean IC50 α4β7 KO^a.

Each structure is given as a SMILES string. pIC50: −log10 of the molar value. Like-named read-outs stand apart in the source and are kept apart here.

α4β1 integrin, sequence (P13612 34-1032): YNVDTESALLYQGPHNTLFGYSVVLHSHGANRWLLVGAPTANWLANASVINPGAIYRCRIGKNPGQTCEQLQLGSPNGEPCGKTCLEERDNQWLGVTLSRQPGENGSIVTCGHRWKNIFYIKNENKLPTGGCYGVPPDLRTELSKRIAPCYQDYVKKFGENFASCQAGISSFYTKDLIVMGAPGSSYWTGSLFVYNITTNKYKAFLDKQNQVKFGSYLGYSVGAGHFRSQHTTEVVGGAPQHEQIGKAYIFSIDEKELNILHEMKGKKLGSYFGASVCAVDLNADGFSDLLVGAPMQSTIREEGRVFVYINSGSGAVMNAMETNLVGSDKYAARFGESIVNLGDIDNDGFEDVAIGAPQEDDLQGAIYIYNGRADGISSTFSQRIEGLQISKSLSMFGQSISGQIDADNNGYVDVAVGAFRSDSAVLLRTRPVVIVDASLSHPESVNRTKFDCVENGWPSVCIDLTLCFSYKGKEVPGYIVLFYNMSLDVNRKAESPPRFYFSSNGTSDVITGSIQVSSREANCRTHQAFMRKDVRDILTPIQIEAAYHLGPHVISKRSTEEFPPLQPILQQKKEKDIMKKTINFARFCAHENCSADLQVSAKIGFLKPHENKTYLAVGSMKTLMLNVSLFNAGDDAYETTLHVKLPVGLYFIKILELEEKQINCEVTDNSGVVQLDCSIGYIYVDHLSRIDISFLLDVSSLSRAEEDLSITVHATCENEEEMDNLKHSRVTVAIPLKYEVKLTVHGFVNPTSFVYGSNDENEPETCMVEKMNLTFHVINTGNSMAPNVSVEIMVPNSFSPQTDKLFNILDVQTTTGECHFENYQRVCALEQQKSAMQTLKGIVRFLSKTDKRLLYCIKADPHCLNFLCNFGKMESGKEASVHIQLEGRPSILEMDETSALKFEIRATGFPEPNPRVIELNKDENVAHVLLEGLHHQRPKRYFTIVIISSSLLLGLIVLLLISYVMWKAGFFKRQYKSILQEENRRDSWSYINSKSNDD
α4β1 integrin, sequence (P05556 21-798): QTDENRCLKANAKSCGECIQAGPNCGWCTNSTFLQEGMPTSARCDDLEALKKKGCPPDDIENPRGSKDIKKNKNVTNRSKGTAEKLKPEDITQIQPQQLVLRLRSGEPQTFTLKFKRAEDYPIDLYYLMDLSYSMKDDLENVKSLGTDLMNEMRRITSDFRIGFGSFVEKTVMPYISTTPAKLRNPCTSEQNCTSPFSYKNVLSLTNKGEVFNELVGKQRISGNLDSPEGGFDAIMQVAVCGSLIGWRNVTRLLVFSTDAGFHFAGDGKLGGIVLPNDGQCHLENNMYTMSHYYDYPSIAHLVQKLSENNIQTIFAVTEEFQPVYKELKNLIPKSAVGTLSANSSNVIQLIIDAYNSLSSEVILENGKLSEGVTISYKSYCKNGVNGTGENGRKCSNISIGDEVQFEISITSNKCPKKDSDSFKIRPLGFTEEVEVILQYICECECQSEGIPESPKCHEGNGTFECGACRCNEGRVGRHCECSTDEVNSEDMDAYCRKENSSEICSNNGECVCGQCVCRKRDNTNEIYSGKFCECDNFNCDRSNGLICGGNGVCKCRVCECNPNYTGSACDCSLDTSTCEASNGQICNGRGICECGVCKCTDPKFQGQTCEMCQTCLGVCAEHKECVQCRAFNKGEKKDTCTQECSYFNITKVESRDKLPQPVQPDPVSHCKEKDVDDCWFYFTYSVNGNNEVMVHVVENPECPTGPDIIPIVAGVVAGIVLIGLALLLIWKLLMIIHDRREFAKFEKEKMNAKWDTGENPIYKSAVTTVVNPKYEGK
α4β7 integrin, sequence (P13612 34-1032): as the sequence (P13612 34-1032) above
α4β7 integrin, sequence (P26010 20-798): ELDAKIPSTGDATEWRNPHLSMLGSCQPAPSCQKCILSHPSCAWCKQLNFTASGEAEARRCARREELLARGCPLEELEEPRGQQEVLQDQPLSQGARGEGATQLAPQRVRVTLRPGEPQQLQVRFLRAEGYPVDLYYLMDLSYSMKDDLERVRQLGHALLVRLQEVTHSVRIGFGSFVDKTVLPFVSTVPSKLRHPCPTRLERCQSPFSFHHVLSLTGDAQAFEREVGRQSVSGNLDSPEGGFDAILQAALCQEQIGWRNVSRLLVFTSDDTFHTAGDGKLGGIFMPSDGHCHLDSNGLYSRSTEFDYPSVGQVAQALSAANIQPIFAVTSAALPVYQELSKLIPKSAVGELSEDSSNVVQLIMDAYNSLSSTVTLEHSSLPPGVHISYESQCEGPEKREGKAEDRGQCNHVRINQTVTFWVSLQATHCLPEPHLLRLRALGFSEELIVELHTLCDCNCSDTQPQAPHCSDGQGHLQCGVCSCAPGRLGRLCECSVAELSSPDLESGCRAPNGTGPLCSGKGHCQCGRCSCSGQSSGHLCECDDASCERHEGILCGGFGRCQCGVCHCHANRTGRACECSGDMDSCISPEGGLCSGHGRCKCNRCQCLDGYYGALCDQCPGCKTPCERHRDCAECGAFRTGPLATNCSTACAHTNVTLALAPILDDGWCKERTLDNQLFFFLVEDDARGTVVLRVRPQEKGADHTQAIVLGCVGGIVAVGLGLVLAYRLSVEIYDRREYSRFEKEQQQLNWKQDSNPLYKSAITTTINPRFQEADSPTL

Consider `O=C(O)[C@H](Cc1cccc2c(-c3ncc(CN4CCC(F)CC4)c4ccccc34)cccc12)NC(=O)C1(C(F)(F)F)CCN(CC(F)F)CC1` [Compound 905], for which the results for the pIC50 at α4β1 integrin (setting [1]) and at α4β7 integrin (setting [2]) were under 6.00 and over 8.00, respectively.
Turning to `Cn1c(=O)c(-c2cccc3c(C[C@H](NC(=O)C4(C(F)(F)F)CCN(C5COCC5C(F)(F)F)CC4)C(=O)O)cccc23)c(C(F)(F)F)c2ccccc21` (stereo partly drawn) [Compound 513], the results for the negative logarithm of the IC50 (pIC50) on α4β1 integrin (setting [3]) and at α4β7 integrin (setting [4]) were under 6.00 and 7.00 to 8.00, respectively.
Regarding `O=C(O)[C@H](Cc1cccc2c(-c3ncc(CN4CCOCC45CC5)c4ccccc34)cccc12)NC(=O)C1(C(F)(F)F)CCN(CC(F)F)CC1` [Compound 914], the pIC50 on α4β1 integrin (setting [1]) was 6.00 to 7.00; at α4β7 integrin (setting [2]) it was over 8.00.
For the molecule `COc1ccc(CN2CCC(c3ccccc3)CC2)c(OC)c1-c1cccc2c(C[C@H](NC(=O)C3(C(F)(F)F)CCN(CC(F)(F)F)CC3)C(=O)O)cccc12` [Compound 807], the results for the pIC50 at α4β1 integrin (setting [1]) and at α4β7 integrin (setting [2]) were under 6.00 and over 8.00, respectively.
On the same counts, the results for `O=C(O)[C@H](Cc1cccc2c(-c3ncc(CN4CCC(F)(F)CC4)c4ccccc34)cccc12)NC(=O)C1(C(F)(F)F)CCN(CC(F)(F)F)CC1` [Compound 853] are under 6.00 and 7.00 to 8.00.
On the same counts, the results for `COc1cccc(CN2CCC(C(F)(F)F)CC2)c1-c1cccc2c(C[C@H](NC(=O)c3c(C)cccc3F)C(=O)O)cccc12` [Compound 1026] are under 6.00 and 7.00 to 8.00.
For `COc1ccc(CN2CCC(F)C2)c(OC)c1-c1cccc2c(C[C@H](NC(=O)c3c(C)cccc3F)C(=O)O)cccc12` (stereo partly drawn) [Compound 629], the pIC50 is under 6.00 at α4β1 integrin (setting [3]) and over 8.00 at α4β7 integrin (setting [4]).
With `COc1ccc(CN2CCCCC2)nc1-c1cccc2c(C[C@H](NC(=O)C3(C(F)(F)F)CCN(CC(F)(F)F)CC3)C(=O)O)cccc12` [Compound 798], the figures for the pIC50 on α4β1 integrin (setting [1]) and on α4β7 integrin (setting [2]) were under 6.00 and over 8.00, respectively.
The corresponding values for `O=C(O)[C@H](Cc1cccc2c(-c3ncc(CN4CC5CC(C5)C4)c4ccccc34)cccc12)NC(=O)C1(C(F)(F)F)CCN(CC(F)(F)F)CC1` [Compound 885] are under 6.00 and over 8.00.
The corresponding values for `COc1ccc(CN2CCC(C(F)(F)F)CC2)c(OC)c1-c1cccc2c(C[C@H](NC(=O)C3(C(F)(F)F)CCN(CC(F)(F)F)CC3)C(=O)O)cccc12` [Compound 844] are 6.00 to 7.00 and over 8.00.
`COc1ccc(CN2CC(F)(F)C2)c(OC)c1-c1cccc2c(C[C@H](NC(=O)c3c(C)cccc3F)C(=O)O)cccc12` [Compound 627]: the pIC50 on α4β1 integrin (setting [3]) is under 6.00; at α4β7 integrin (setting [4]), 7.00 to 8.00.
Turning to `CC1(C(=O)N[C@@H](Cc2cccc3c(-c4ncc(CN5CCCCC5)c5ccccc45)cccc23)C(=O)O)CCN(CC(F)F)CC1` [Compound 687], the pIC50 on α4β1 integrin (setting [1]) was under 6.00; on α4β7 integrin (setting [2]), over 8.00.
On the same counts, the results for `COc1ccc(CCN2CCC(F)(F)CC2)c(OC)c1-c1cccc2c(C[C@H](NC(=O)C3(C(F)(F)F)CCN(CC(F)(F)F)CC3)C(=O)O)cccc12` [Compound 958] are 6.00 to 7.00 and over 8.00.
On the same counts, the results for `Cn1c(=O)c(-c2cccc3c(C[C@H](NC(=O)C4(C(F)(F)F)CCN(CC(F)F)CC4)C(=O)O)cccc23)c(C(F)(F)F)c2cc(CN3CCC(c4ccccc4)CC3)ccc21` [Compound 838] are 7.00 to 8.00 and over 8.00.
On to `CN(C)Cc1cccc2c(-c3cccc4c(C[C@H](NC(=O)C5(C(F)(F)F)CCN(C6COC6)CC5)C(=O)O)cccc34)nccc12` [Compound 591], for which the values for the negative-log IC50 (pIC50) on α4β1 integrin (setting [3]) and on α4β7 integrin (setting [4]) were under 6.00 and over 8.00, respectively.
With `COc1ccc(CN2CCCCC2)nc1-c1cccc2c(C[C@H](NC(=O)c3c(C)cccc3F)C(=O)O)cccc12` [Compound 1016], the pIC50 on α4β1 integrin (setting [1]) was 6.00 to 7.00; on α4β7 integrin (setting [2]), over 8.00.
On the same counts, the results for `O=C(O)[C@H](Cc1cccc2c(-c3ncc(CN4CCC5(CCCCC5)CC4)c4ccccc34)cccc12)NC(=O)C1(C(F)(F)F)CCN(CC(F)(F)F)CC1` [Compound 857] are under 6.00 and 7.00 to 8.00.
On the same counts, the results for `O=C(O)[C@H](Cc1cccc2c(-c3ncc(CN4CCC[C@H](F)C4)c4ccccc34)cccc12)NC(=O)C1(C(F)(F)F)CCN(CC(F)(F)F)CC1` [Compound 852] are under 6.00 and 7.00 to 8.00.
On to `Cn1c(=O)c(-c2cccc3c(C[C@H](NC(=O)C4(C)CCCN(CC5COC5)C4)C(=O)O)cccc23)c(C(F)(F)F)c2ccccc21` (stereo partly drawn) [Compound 520], for which the pIC50 at α4β1 integrin (setting [3]) is under 6.00; on α4β7 integrin (setting [4]) it was 6.00 to 7.00.
For `COc1cc(CN2CCCCC2)cc(C(F)(F)F)c1-c1cccc2c(C[C@H](NC(=O)C3(C(F)(F)F)CCN(CC(F)(F)F)CC3)C(=O)O)cccc12` [Compound 824], the pIC50 at α4β1 integrin (setting [1]) is under 6.00; on α4β7 integrin (setting [2]), over 8.00.
On to `O=C(O)[C@H](Cc1cccc2c(-c3nccc4cccc(CCN5CCCCC5)c34)cccc12)NC(=O)C1(C(F)(F)F)CCN(CC(F)(F)F)CC1` [Compound 982], for which the figures for the pIC50 on α4β1 integrin (setting [1]) and at α4β7 integrin (setting [2]) were under 6.00 and over 8.00, respectively.
As for `COc1cc2c(c(OC)c1-c1cccc3c(C[C@H](NC(=O)c4c(C)cccc4F)C(=O)O)cccc13)CN(CC(F)(F)F)CC2` [Compound 475], the pIC50 at α4β1 integrin (setting [3]) was 6.00 to 7.00; at α4β7 integrin (setting [4]) it was over 8.00.
As for `COc1cccc(CCN2CCC[C@@H](F)C2)c1-c1cccc2c(C[C@H](NC(=O)C3(C(F)(F)F)CCN(CC(F)F)CC3)C(=O)O)cccc12` [Compound 970], the pIC50 at α4β1 integrin (setting [1]) was 6.00 to 7.00; on α4β7 integrin (setting [2]), over 8.00.
On to `COc1ccc(CN2CCC(C)(C)CC2)c(OC)c1-c1cccc2c(C[C@H](NC(=O)c3c(C)cccc3F)C(=O)O)cccc12` [Compound 626], for which the results for the pIC50 on α4β1 integrin (setting [3]) and at α4β7 integrin (setting [4]) were 6.00 to 7.00 and over 8.00, respectively.
Regarding `COc1ccc(CN2CCCC(F)C2)c(C(F)(F)F)c1-c1cccc2c(C[C@H](NC(=O)C3(C(F)(F)F)CCN(CC(F)(F)F)CC3)C(=O)O)cccc12` (stereo partly drawn) [Compound 820], the pIC50 is under 6.00 on α4β1 integrin (setting [1]) and 7.00 to 8.00 at α4β7 integrin (setting [2]).
For `COc1cccc(OC)c1-c1cccc2c(C[C@H](NC(=O)c3c(C)cccc3F)C(=O)O)cccc12` [Compound 526], the figures for the negative logarithm of the IC50 (pIC50) at α4β1 integrin (setting [3]) and on α4β7 integrin (setting [4]) were under 6.00 and 7.00 to 8.00, respectively.
On the same counts, the results for `COc1ccc(CN2CCCCC2)cc1-c1cccc2c(C[C@H](NC(=O)c3c(C)cccc3F)C(=O)O)cccc12` [Compound 667] are under 6.00 and 7.00 to 8.00.
As to `COc1c(CN2CCCCC2)ccc(Cl)c1-c1cccc2c(C[C@H](NC(=O)C3(C(F)(F)F)CCN(CC(F)(F)F)CC3)C(=O)O)cccc12` [Compound 799], the negative-log IC50 (pIC50) at α4β1 integrin (setting [1]) is under 6.00; at α4β7 integrin (setting [2]) it was over 8.00.
With `COc1ccc(CN2CCC(F)(F)CC2)c(OC)c1-c1cccc2c(C[C@H](NC(=O)c3c(C)cc4cn(CC(F)(F)F)nc4c3F)C(=O)O)cccc12` [Compound 664], the pIC50 is under 6.00 on α4β1 integrin (setting [3]) and 6.00 to 7.00 at α4β7 integrin (setting [4]).
The corresponding values for `COc1ccc(CN(C)C)c(C(F)(F)F)c1-c1cccc2c(C[C@H](NC(=O)C3(C(F)(F)F)CCN(CC(F)(F)F)CC3)C(=O)O)cccc12` [Compound 563] are 6.00 to 7.00 and over 8.00.
Regarding `O=C(O)[C@H](Cc1cccc2c(-c3ncc(CN4CCCCC4)c4ccccc34)cccc12)NC(=O)C1(C(F)(F)F)CCNCC1` [Compound 550], the pIC50 was under 6.00 on α4β1 integrin (setting [3]) and 7.00 to 8.00 at α4β7 integrin (setting [4]).
In the case of `COc1cccc(CN2CCC(C(C)(C)C)CC2)c1-c1cccc2c(C[C@H](NC(=O)c3c(C)cccc3F)C(=O)O)cccc12` [Compound 1027], the pIC50 was 6.00 to 7.00 on α4β1 integrin (setting [1]) and over 8.00 at α4β7 integrin (setting [2]).
On to `O=C(O)[C@H](Cc1cccc2c(-c3nccc4c(CN5CCC(F)(F)CC5)cccc34)cccc12)NC(=O)C1(C(F)(F)F)CCN(CC(F)(F)F)CC1` [Compound 554], for which the pIC50 at α4β1 integrin (setting [3]) was under 6.00; at α4β7 integrin (setting [4]) it was 7.00 to 8.00.
The corresponding values for `COc1ccc2cccnc2c1-c1cccc2c(C[C@H](NC(=O)C3(C(F)(F)F)CCN(CC(F)(F)F)CC3)C(=O)O)cccc12` [Compound 472] are under 6.00 and over 8.00.
For the molecule `CN(C)Cc1ccc2c(c1)c(C(F)(F)F)c(-c1cccc3c(C[C@H](NC(=O)C4(C(F)(F)F)CCN(CC(F)(F)F)CC4)C(=O)O)cccc13)c(=O)n2C` [Compound 696], the results for the pIC50 on α4β1 integrin (setting [1]) and on α4β7 integrin (setting [2]) were 7.00 to 8.00 and over 8.00, respectively.
Consider `COc1cccc(CN2CCCCC2)c1-c1cccc2c(C[C@H](NC(=O)c3c(C)cc(NCC(F)(F)F)cc3F)C(=O)O)cccc12` [Compound 545], for which the pIC50 at α4β1 integrin (setting [3]) is 6.00 to 7.00; on α4β7 integrin (setting [4]), over 8.00.
The corresponding values for `COC(=O)[C@H](Cc1cccc2c(-c3c(OC)ccc(CN4C(C)CCC4C)c3OC)cccc12)NC(=O)c1c(C)cccc1F` (stereo partly drawn) [Compound 552] are 6.00 to 7.00 and over 8.00.
For `COc1cccc(CN2CCCC(F)C2)c1-c1cccc2c(C[C@H](NC(=O)C3(C(F)(F)F)CCN(CC(F)(F)F)CC3)C(=O)O)cccc12` (stereo partly drawn) [Compound 828], the pIC50 at α4β1 integrin (setting [1]) is under 6.00; on α4β7 integrin (setting [2]), 7.00 to 8.00.
With `O=C(O)[C@H](Cc1cccc2c(-c3nccc4c(CN5CCCCC5)cccc34)cccc12)NC(=O)C1(C(F)(F)F)CCN([C@H]2COCC2(F)F)CC1` [Compound 641], the negative-log IC50 (pIC50) on α4β1 integrin (setting [3]) is 6.00 to 7.00; at α4β7 integrin (setting [4]), over 8.00.
